# Results as given in ChEMBL document CHEMBL5550205, “Discovery of a NCOA4 Degrader for Labile Iron-Dependent Ferroptosis Inhibition” (J Med Chem, 2024).
# Calls of active or inactive are those of the source. The rule behind the calls is not given here.
# What was measured:
# [1] = test system: AML12; assay: Protection against CCl4-induced ferroptosis in mouse AML12 cells assessed as reduction in MDA content at 200 to 1000 nM measured for 36 hrs; format: functional, cell-based; conditions: dose 200-1000 nM
# [2] = test system: Mus musculus; assay: Inhibition of CCl4-induced ferroptosis in acute liver injury C57BL/6 mouse model assessed as decrease in IL-1beta expression in liver at 10 to 30 mg/kg, ip pretreated with compound for 3 hrs followed by CCl4 induction and measured after 12 to 24 hrs by q-PCR analysis; format: functional, organism-based; conditions: dose 10-30 mg/kg, time 15-27 hrs
# [3] = test system: Mus musculus; assay: Inhibition of CCl4-induced ferroptosis in acute liver injury C57BL/6 mouse model assessed as downregulation of FTL level at 10 to 30 mg/kg, ip pretreated with compound for 3 hrs followed by CCl4 induction and measured after 12 to 24 hrs by Western blot analysis; format: functional, organism-based; conditions: dose 10-30 mg/kg, time 15-27 hrs
# [4] = test system: AML12; assay: Protection against FINO2-induced ferroptosis in mouse AML12 cells assessed as reduction in lipid peroxidation level at 200 nM measured for 48 hrs; format: functional, cell-based
# [5] = test system: AML12; assay: Upregulation of FTH1 level in mouse AML12 cells incubated for 24 hrs by Western blot analysis; format: functional, cell-based; conditions: dose <= 10.0 µM
# [6] = test system: AML12; assay: Downregulation of Free Fe2+ level in mouse AML12 cells by FerroOrange dye based laser scanning confocal microscopic analysis; format: functional, cell-based
# [7] = test system: Mus musculus; assay: Inhibition of CCl4-induced ferroptosis in acute liver injury C57BL/6 mouse model assessed as reduction in hepatocyte damage at 10 to 30 mg/kg, ip pretreated with compound for 3 hrs followed by CCl4 induction and measured after 12 to 24 hrs by H and E staining based analysis; format: functional, organism-based; conditions: dose 10-30 mg/kg, time 15-27 hrs
# [8] = target: T1, von Hippel-Lindau disease tumor suppressor/Nuclear receptor coactivator 4 (Homo sapiens, UniProt P40337+Q13772); assay: PROTAC activity at NCOA4/VHL in human HeLa cells assessed as induction of NCOA4 degradation measured for 24 hrs by Western blot analysis; format: cell-based
# Target sequence in this assay (P40337 whole entry): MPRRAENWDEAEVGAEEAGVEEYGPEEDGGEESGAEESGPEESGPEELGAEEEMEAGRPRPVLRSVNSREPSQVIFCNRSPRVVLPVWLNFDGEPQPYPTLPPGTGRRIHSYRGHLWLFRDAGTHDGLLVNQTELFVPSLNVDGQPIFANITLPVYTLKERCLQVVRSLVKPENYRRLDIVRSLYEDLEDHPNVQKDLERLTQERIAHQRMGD
# Target sequence in this assay (Q13772 whole entry): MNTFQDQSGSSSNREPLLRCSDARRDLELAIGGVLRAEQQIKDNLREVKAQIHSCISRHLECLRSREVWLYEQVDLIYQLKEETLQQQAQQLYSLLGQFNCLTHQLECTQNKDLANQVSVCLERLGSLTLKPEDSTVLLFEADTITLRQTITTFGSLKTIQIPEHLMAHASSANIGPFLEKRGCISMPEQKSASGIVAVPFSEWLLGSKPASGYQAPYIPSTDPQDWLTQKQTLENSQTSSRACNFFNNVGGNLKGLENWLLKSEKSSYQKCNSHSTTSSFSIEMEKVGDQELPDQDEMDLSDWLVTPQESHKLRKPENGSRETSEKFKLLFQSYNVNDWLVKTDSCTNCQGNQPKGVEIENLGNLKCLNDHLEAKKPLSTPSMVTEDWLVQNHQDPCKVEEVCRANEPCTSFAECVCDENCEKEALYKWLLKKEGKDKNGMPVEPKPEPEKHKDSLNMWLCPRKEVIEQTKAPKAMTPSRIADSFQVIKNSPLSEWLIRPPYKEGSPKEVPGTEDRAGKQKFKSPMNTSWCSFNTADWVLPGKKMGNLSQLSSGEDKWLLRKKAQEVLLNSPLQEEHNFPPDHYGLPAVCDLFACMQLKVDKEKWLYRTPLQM
# [9] = test system: AML12; assay: Protection against RSL3-induced ferroptosis in mouse AML12 cells assessed as increase in cell viability at 200 nM measured for 48 hrs by cell counting-lite 2.0 analysis; format: functional, cell-based
# [10] = test system: AML12; assay: Protection against RSL3-induced ferroptosis in mouse AML12 cells assessed as attenuation of Fe2+ level by fluorescence imaging analysis; format: functional, cell-based
# [11] = test system: Mus musculus; assay: Inhibition of CCl4-induced ferroptosis in acute liver injury C57BL/6 mouse model assessed as decrease in TNF-alpha expression in liver at 10 to 30 mg/kg, ip pretreated with compound for 3 hrs followed by CCl4 induction and measured after 12 to 24 hrs by q-PCR analysis; format: functional, organism-based; conditions: dose 10-30 mg/kg, time 15-27 hrs
# [12] = test system: AML12; assay: Protection against iFSP1-induced ferroptosis in mouse AML12 cells assessed as reduction in lipid peroxidation level at 200 nM measured for 48 hrs; format: functional, cell-based
# [13] = test system: AML12; assay: Protection against FINO2-induced ferroptosis in mouse AML12 cells assessed as increase in cell viability at 200 nM measured for 48 hrs by cell counting-lite 2.0 analysis; format: functional, cell-based
# [14] = test system: AML12; assay: Protection against CCl4-induced ferroptosis in mouse AML12 cells assessed as cell viability in presence of Deferoxamine; format: functional, cell-based
# [15] = test system: AML12; assay: Effect on FTL mRNA expression in mouse AML12 cells at 0.12 to 10 uM measured for 36 hrs by RT-qPCR analysis; format: functional, cell-based; conditions: dose 0.12-10 µM
# [16] = test system: Mus musculus; assay: Inhibition of CCl4-induced ferroptosis in acute liver injury C57BL/6 mouse model assessed as downregulation of FTH1 level at 10 to 30 mg/kg, ip pretreated with compound for 3 hrs followed by CCl4 induction and measured after 12 to 24 hrs by Western blot analysis; format: functional, organism-based; conditions: dose 10-30 mg/kg, time 15-27 hrs
# [17] = target: T1, von Hippel-Lindau disease tumor suppressor/Nuclear receptor coactivator 4; assay: PROTAC activity at NCOA4/VHL in human HeLa cells assessed as induction of NCOA4 degradation at 50 nM measured 36 to 48 hrs by Western blot analysis; format: cell-based; conditions: time 36-48 hrs
# Target sequence in this assay (P40337 whole entry, looked up): as the sequence (P40337 whole entry) above
# Target sequence in this assay (Q13772 whole entry, looked up): as the sequence (Q13772 whole entry) above
# [18] = test system: AML12; assay: Downregulation of lipid hydroperoxide level in mouse AML12 cells at 200 nM measured for 36 hrs; format: functional, cell-based
# [19] = test system: AML12; assay: Protection against CCl4-induced ferroptosis in mouse AML12 cells assessed as reduction in lipid peroxidation level at 200 to 1000 nM; format: functional, cell-based; conditions: dose 200-1000 nM
# [20] = target: von Hippel-Lindau disease tumor suppressor/Nuclear receptor coactivator 4 (Mus musculus, UniProt P40338+Q5U4H9); assay: PROTAC activity at NCOA4/VHL in mouse AML12 cells assessed as reduction in intracellular NCOA4 level incubated for 24 hrs by Western blot analysis; format: cell-based
# [21] = test system: Mus musculus; assay: Inhibition of CCl4-induced ferroptosis in acute liver injury C57BL/6 mouse model assessed as reduction in necrosis at 10 to 30 mg/kg, ip pretreated with compound for 3 hrs followed by CCl4 induction and measured after 12 to 24 hrs by H and E staining based analysis; format: functional, organism-based; conditions: dose 10-30 mg/kg, time 15-27 hrs
# [22] = test system: AML12; assay: Protection against Brequinal-induced ferroptosis in mouse AML12 cells assessed as attenuation of Fe2+ level by fluorescence imaging analysis; format: functional, cell-based
# [23] = test system: Mus musculus; assay: Inhibition of CCl4-induced ferroptosis in acute liver injury C57BL/6 mouse model assessed as inhibition of AST level at 10 to 30 mg/kg, ip pretreated with compound for 3 hrs followed by CCl4 induction and measured after 12 to 24 hrs; format: functional, organism-based; conditions: dose 10-30 mg/kg, time 15-27 hrs
# [24] = test system: AML12; assay: Inhibition of Ptgs2 mRNA expression in mouse AML12 cells measured for 36 hrs by qRT-PCR analysis; format: functional, cell-based; conditions: dose <= 10.0 µM
# [25] = test system: AML12; assay: Protection against CCl4-induced ferroptosis in mouse AML12 cells assessed as […] at 200 nM measured for 48 hrs; format: functional, cell-based
# [26] = test system: AML12; assay: Protection against Erastin-induced ferroptosis in mouse AML12 cells assessed as increase in cell viability at 200 nM measured for 48 hrs by cell counting-lite 2.0 analysis; format: functional, cell-based
# [27] = test system: AML12; assay: Protection against Brequinal-induced ferroptosis in mouse AML12 cells assessed as reduction in lipid peroxidation level at 200 nM measured for 48 hrs; format: functional, cell-based
# von Hippel-Lindau disease tumor suppressor/Nuclear receptor coactivator 4 (Mus musculus, UniProt P40338+Q5U4H9), sequence (P40338 whole entry): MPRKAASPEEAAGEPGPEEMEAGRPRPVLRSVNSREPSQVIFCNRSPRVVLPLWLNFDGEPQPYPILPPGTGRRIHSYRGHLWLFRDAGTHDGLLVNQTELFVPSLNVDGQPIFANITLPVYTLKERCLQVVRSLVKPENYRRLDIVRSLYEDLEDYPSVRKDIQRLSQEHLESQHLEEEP
# von Hippel-Lindau disease tumor suppressor/Nuclear receptor coactivator 4 (Mus musculus, UniProt P40338+Q5U4H9), sequence (Q5U4H9 whole entry): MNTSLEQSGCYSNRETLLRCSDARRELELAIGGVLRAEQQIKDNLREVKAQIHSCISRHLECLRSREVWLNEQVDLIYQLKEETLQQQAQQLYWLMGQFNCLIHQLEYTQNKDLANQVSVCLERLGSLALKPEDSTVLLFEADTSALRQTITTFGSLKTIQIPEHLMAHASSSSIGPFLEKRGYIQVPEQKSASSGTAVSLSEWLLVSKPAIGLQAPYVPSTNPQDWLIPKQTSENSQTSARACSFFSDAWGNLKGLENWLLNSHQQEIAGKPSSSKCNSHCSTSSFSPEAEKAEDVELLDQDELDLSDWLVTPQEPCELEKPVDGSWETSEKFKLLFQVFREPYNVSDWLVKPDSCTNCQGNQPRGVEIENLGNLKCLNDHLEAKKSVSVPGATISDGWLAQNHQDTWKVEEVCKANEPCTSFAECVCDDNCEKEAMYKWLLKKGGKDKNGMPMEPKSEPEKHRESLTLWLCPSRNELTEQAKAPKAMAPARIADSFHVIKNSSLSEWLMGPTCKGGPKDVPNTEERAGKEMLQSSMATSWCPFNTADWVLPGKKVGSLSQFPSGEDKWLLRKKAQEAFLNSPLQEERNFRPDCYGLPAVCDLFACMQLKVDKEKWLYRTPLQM
smiles,measurement,setting,value
Cc1ncsc1-c1ccc(CNC(=O)[C@@H]2C[C@@H](O)CN2C(=O)[C@H](NC(=O)CCCC(=O)NCCOCCOCCOCCOc2ccc3c(c2)CCN(c2cccc(-c4nc5ccc(N6CCN(C)CC6)cc5[nH]4)c2)C3)C(C)(C)C)cc1,Activity,[1],Active
same,inhibition,[2],Active
same,inhibition,[3],Active
same,Activity,[4],Active
same,Activity,[5],Dose-Dependent Effect
same,Activity,[6],Active
same,inhibition,[7],Active
same,DC50,[8],3 nM
same,Activity,[9],Active
same,Activity,[10],Active
same,inhibition,[11],Active
same,Activity,[12],Active
same,Activity,[13],Active
same,EC50,[14],410 nM
same,Activity,[15],inactive
same,inhibition,[16],Active
same,Activity,[17],Active
same,Activity,[18],Active
same,Activity,[19],Active
same,DC50,[20],202 nM
same,inhibition,[21],Active
same,Activity,[22],Active
same,inhibition,[23],Active
same,inhibition,[24],Dose-Dependent Effect
same,Activity,[25],Active
same,Activity,[26],Active
same,Activity,[27],Active
